Read-outs that look alike come from different tables or passages of the source.
How the values were obtained:
PfDHODH = target: T1, PfDHODH (Plasmodium falciparum, UniProt Q08210); assay: PfDHODH inhibition assay (DCIP end-point, 384-well); format: biochemical
T1 construct: encoding amino acid residues 158 to 569 fused to a His6-SUMO tag in its N-terminus; His6-SUMO (N, cleaved yes); made in house; host or cells: E. coli BL21 Star (DE3), pETSUMO/PfDHODH
Experimental: The screening of 40,400 compounds was conducted in 384-well plates by adapting the end-point assay reported before. First, 1 µL of 200 µM compound was transferred into 384-well plates using a Benchtop Multi-Pipetter EDR-384SR (Biotech Co., Ltd., Tokyo, Japan). […] Next, 38 µL of assay mix (100 mM HEPES-NaOH pH 7.5, 5% (v/v) glycerol, 150 mM NaCl, 0.05% (v/v) Triton X-100, 15 µM decylubiquinone (dUQ, Sigma), 120 µM 2,6-dichlorophenolindophenol (DCIP, Sigma), and 20 nM PfDHODH) were dispensed into all wells and mixed at 600 rpm for 1 min by a MixMate®® (Eppendorf). The reaction was started by the addition of 5 µL of 1.8 mM L-DHO (Sigma) as the substrate and mixed as described above for 20 s. The absorbance at 600 nm was recorded using a SpectraMax®® Paradigm®® Multi-Mode Microplate Reader (Molecular Devices) before (t0) and after 20 min (t20) incubation at room temperature. The readings at t0 were subtracted from t20, and PfDHODH inhibition was calculated as the inhibition relative to the negative and positive controls in a single-point assay. Hits were defined as compounds inhibiting more than 50% of PfDHODH activity at 4.5 µM. The quality of the screening system was evaluated by calculating statistical parameters: Z′-factor, S/N, S/B, SW, and CV, as previously reported. The IC50 values of the hit compounds were determined using the same assay system containing serial dilutions of each compound in triplicates (22.7, 6.8, 2.27, 0.68, 0.227, 0.068, 0.023, 0.007, 0.002, 0.0007 µM) using GraphPad Prism 8.0 software (GraphPad Software Inc., San Diego, CA, USA).

HsDHODH = target: T2, HsDHODH (Homo sapiens, UniProt Q02127); assay: HsDHODH counter-assay; format: biochemical; conditions: purified recombinant HsDHODH, tested at 4.5 µM; read-out: IC50 DHODH Hs
T2 construct: made in house
Experimental: Selected hit compounds from PfDHODH screening were tested for potential inhibition against HsDHODH at 4.5 µM. The HsDHODH used in this study was purified as previously reported. The HsDHODH assay was performed similarly to that for PfDHODH, but in an assay mix consisting of 50 mM Tris-HCl pH 8.0, 0.1% (v/v) Triton X-100, 2 mM potassium cyanide (KCN, Wako), 60 µM dUQ, and 120 µM DCIP, with the reaction started by the addition of 200 µM L-DHO (final concentration) in triplicate. For this assay, DMSO was used as a negative control and 10 µM of lapachol was used as a positive control (100% inhibition). The relative inhibition was calculated as described above.

[1] = Cytotoxicity assay, DLD-1 (Cell Counting Kit-8); format: cell-based; conditions: DLD-1 human colorectal adenocarcinoma cells
Experimental: Human dermal fibroblast cells (HDF, Zenbio, Inc., Durham, NC, USA) were cultured in Dulbecco’s Modified Eagle Medium/Nutrient Mixture F-12 medium (DMEM/F12, Gibco), human pancreatic carcinoma cells (PANC-1, DS Pharma Biomedical, Co., Ltd.) were cultured in DMEM (Gibco), and human colorectal adenocarcinoma cells (DLD-1, Taiho Pharmaceutical Company) were cultured in RPMI-1640 medium (FUJIFILM Wako Pure Chemicals). The culture mediums were supplemented with 10% (v/v) heat-inactivated fetal bovine serum (Gibco) and the cells were maintained at 37 °C under 5% CO2.
HDF, PANC-1, and DLD-1 were seeded at 2.5 × 10^4 cells/well on a 96-well plate and incubated at 37 °C under 5% CO2 overnight. The cells were then washed with PBS and the medium was replaced with 99 µL of fresh media. Then, 1 µL of the compounds or DMSO was added to the respective wells. As controls, wells containing 1% (v/v) DMSO in column 1 and wells containing only the culture medium in column 12 were used as the negative and positive controls, respectively. After 48 h of incubation, the cells were washed with PBS, and 99 µL of fresh media was replaced, followed by the addition of 10 µL of Cell Counting Kit-8 (Dojindo) to each well. After 3 h of incubation, the absorbance was measured at 450 nm using a SpectraMax®® Paradigm®® Multi-Mode microplate Reader. The calculation of cell viability in the test well was based on the absorbance of control wells according to the manufacturer’s protocol. The mean of quadruplet values was used to calculate the CC50 using GraphPad Prism 8.0 software.

[2] = target: mammalian mitochondrial complexes II–III (Bos taurus, UniProt P00157+P35720+Q3T189+Q95123); assay: succinate-cytochrome c reductase (complexes II–III) activity assay; format: biochemical; conditions: bovine heart mitochondria, range tested 0.0007 to 22.7 µM; read-out: IC50 Mammalian Mitochondrial CII–III
Experimental: Bovine heart mitochondria were prepared as previously described. The NADH-cytochrome c reductase (complexes I–III) and succinate-cytochrome c reductase (complexes II–III) activities were assayed in 384-well plates following an established protocol with small modifications. Complex I–III activity was assayed in a reaction mix containing 50 mM phosphate buffer pH 7.4, 2 mM KCN, 200 µM cytochrome c (cytochrome c from horse heart, Nacalai tesque), and 15 µg/mL mitochondria. Plates containing 1 µL serial dilutions of PfDHODH inhibitors were prepared and mixed with 38 µL of the reaction mix, as described above. The reaction was started by the addition of 5 µL of 2.6 mM NADH, and the assay was performed as described for PfDHODH, but at 550 nm and with 15 min of incubation. Complex II–III activity was assayed similarly to complex I–III activity but with 100 µM cytochrome c and 25 µg/mL mitochondria, and the reaction was started by 10 mM succinate. For both assays, DMSO and 5 µM ascochlorin were used as negative and positive controls, respectively. Assays were performed in triplicate.

[3] = recombinant tag-free PfDHODH, 20 min, serial dilutions 0.0007-22.7 µM, read-out: IC50 DHODH Pf

T1 sequence (Q08210 158-569): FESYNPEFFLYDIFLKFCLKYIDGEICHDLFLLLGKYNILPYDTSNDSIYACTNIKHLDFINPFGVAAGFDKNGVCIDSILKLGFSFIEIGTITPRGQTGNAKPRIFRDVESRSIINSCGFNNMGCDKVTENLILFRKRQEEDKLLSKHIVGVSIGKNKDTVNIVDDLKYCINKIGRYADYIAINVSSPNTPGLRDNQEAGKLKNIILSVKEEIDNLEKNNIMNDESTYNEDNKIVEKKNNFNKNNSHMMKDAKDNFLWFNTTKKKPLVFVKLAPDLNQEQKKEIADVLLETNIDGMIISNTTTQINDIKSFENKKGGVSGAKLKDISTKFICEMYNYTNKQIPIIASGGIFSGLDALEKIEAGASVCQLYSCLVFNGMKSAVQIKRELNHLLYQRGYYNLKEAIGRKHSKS
T2 sequence (Q02127 whole entry): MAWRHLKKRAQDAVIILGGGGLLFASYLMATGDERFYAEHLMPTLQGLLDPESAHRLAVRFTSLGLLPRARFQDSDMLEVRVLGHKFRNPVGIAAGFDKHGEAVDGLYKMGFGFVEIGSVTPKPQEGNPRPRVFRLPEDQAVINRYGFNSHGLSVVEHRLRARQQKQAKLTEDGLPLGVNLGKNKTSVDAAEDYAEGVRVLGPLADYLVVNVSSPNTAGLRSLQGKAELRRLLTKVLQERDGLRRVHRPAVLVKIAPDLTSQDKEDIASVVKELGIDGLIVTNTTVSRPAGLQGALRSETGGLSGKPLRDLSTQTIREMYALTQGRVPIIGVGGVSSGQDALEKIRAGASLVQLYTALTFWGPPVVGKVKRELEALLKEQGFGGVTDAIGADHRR

Compound | IC50 (PfDHODH; [3]) [µM] | IC50 (HsDHODH) [µM] | EC50 at 48 h [1] [µM] | IC50 [2] [µM] | IC50 (PfDHODH) [µM] | fold increase in the PfDHODH IC50 compared to 1 (PfDHODH) [fold]
N=C1Sc2cc(-c3ccc4ccccc4c3)ccc2C2=NCCCN12 [Compound 1] | 0.65 ± 0.05 | > 4.5 | > 10 | > 22.7 |  | 
N=C1Sc2cc(-c3ccc4c(c3)OCO4)ccc2C2=NCCCN12 [Compound 3] | 1.18 ± 0.04 | > 4.5 | > 10 | > 22.7 |  | 
N=C1Sc2cc(-c3ccc4c(c3)OCCO4)ccc2C2=NCCCN12 [Compound 4] | 0.97 ± 0.08 | > 4.5 | > 10 | > 22.7 |  | 
N=C1Sc2cc(-c3ccc4cnccc4c3)ccc2C2=NCCCN12 [Compound 5] | 0.96 ± 0.09 | > 4.5 | > 10 | > 22.7 |  | 
N=C1Sc2cc(-c3ccc4c(C(=O)OC(F)(F)F)c[nH]c4c3)ccc2C2=NCCCN12 [Compound 6] | 0.7 ± 0.04 | > 4.5 | > 10 | > 22.7 |  | 
N=C1Sc2cc(-c3cc4ccccc4o3)ccc2C2=NCCCN12 [Compound 7] | 1.3 ± 0.05 | > 4.5 | > 10 | > 22.7 |  | 
N=C1Sc2cc(/C=C/c3ccccc3)ccc2C2=NCCCN12 [Compound 8] |  | > 4.5 | > 10 | > 22.7 | 1.07 ± 0.05 | 
CC(C)(C)N=C1Sc2cc(-c3cc4ccccc4s3)ccc2C2=NCCCN12 [Compound 10] | 3.84 ± 0.09 | > 4.5 | > 10 | > 22.7 |  | 6
N=C1Sc2cc(-c3ccccc3)ccc2C2=NCCCN12 [Compound 12] | 0.68 ± 0.05 | > 4.5 | > 10 | > 22.7 |  | 
COC(=O)c1ccc(-c2ccc3c(c2)SC(=N)N2CCCN=C32)cc1 [Compound 13] | 1.22 ± 0.05 | > 4.5 | > 10 | > 22.7 |  | 
N#Cc1ccc(-c2ccc3c(c2)SC(=N)N2CCCN=C32)cc1 [Compound 14] | 3.89 ± 0.23 | > 4.5 | > 10 | > 22.7 |  | 
N=C1Sc2cc(-c3ccc(C(F)(F)F)cc3)ccc2C2=NCCCN12 [Compound 15] | 2.31 ± 0.11 | > 4.5 | > 10 | > 22.7 |  | 
CSc1ccc(-c2ccc3c(c2)SC(=N)N2CCCN=C32)cc1 [Compound 17] | 0.96 ± 0.07 | > 4.5 | > 10 | > 22.7 |  | 
N=C1Sc2cc(-c3ccc(OC(F)(F)F)cc3)ccc2C2=NCCCN12 [Compound 18] | 1.43 ± 0.06 | > 4.5 | > 10 | > 22.7 |  | 
N=C1Sc2cc(-c3ccc(C(=O)c4ccccc4)cc3)ccc2C2=NCCCN12 [Compound 19] | 1.07 ± 0.05 | > 4.5 | > 10 | > 22.7 |  | 
C#CCOCc1ccc(C(=O)c2ccc(-c3ccc4c(c3)SC(=N)N3CCCN=C43)cc2)cc1 [Compound 20] | 1.21 ± 0.06 | > 4.5 | > 10 | > 22.7 |  | 
N=C1Sc2cc(-c3cccc([N+](=O)[O-])c3)ccc2C2=NCCCN12 [Compound 21] | 3.68 ± 0.31 | > 4.5 | > 10 | > 22.7 |  | 
CC(C)Oc1cccc(-c2ccc3c(c2)SC(=N)N2CCCN=C32)c1 [Compound 22] | 1.56 ± 0.05 | > 4.5 | > 10 | > 22.7 |  | 
CCc1cccc(-c2ccc3c(c2)SC(=N)N2CCCN=C32)c1 [Compound 25] | 1.52 ± 0.08 | > 4.5 | > 10 | > 22.7 |  | 
N=C1Sc2cc(-c3ccccc3-c3ccccc3)ccc2C2=NCCCN12 [Compound 27] | 3.3 ± 0.1 | > 4.5 | > 10 | > 22.7 |  | 
c1ccc(-c2ccc3c(c2)SN2CCCN=C32)cc1 [Compound 30] | 4.26 ± 0.12 | > 4.5 | > 10 | > 22.7 |  | 
c1ccc2c(-c3ccc4c(c3)SN3CCCN=C43)cccc2c1 [Compound 31] | 1.1 ± 0.08 | > 4.5 | > 10 | > 22.7 |  | 
c1cc2c(cc1-c1ccc3c(c1)SN1CCCN=C31)OCO2 [Compound 32] | 1.29 ± 0.09 | > 4.5 | > 10 | > 22.7 |  | 
c1ccc(-c2ccc3c(c2)C2=NCCCN2S3)cc1 [Compound 36] | 1.51 ± 0.04 | > 4.5 | > 10 | > 22.7 |  | 
COC(=O)c1ccc(-c2ccc3c(c2)SN2CCCN=C32)cc1 [Compound 37] | 1.15 ± 0.07 | > 4.5 | > 10 | > 22.7 |  | 
O=[N+]([O-])c1ccc(-c2ccc3c(c2)SN2CCCN=C32)cc1 [Compound 39] | 1.3 ± 0.04 | > 4.5 | > 10 | > 22.7 |  | 
COC(=O)c1cccc(-c2ccc3c(c2)SN2CCCN=C32)c1 [Compound 40] | 1.43 ± 0.02 | > 4.5 | > 10 | > 22.7 |  | 
COc1ccccc1-c1ccc2c(c1)SN1CCCN=C21 [Compound 42] | 1.18 ± 0.05 | > 4.5 | > 10 | > 22.7 |  | 
O=[N+]([O-])c1ccccc1-c1ccc2c(c1)SN1CCCN=C21 [Compound 43] | 1.15 ± 0.06 | > 4.5 | > 10 | > 22.7 |  | 

Source: article PMC8268581, “Identification of 3,4-Dihydro-2H,6H-pyrimido[1,2-c][1,3]benzothiazin-6-imine Derivatives as Novel Selective Inhibitors of Plasmodium falciparum Dihydroorotate Dehydrogenase” (International Journal of Molecular Sciences, 2021)
